Experiments:
[1] = tested on: trypanosomes; assay: inhibition of the growth of trypanosomes by free daunomycin; format: cell-based, Trypanosoma brucei brucei
[2] = format: physicochemical
Description: In addition, the simplicity of the synthesis of the bdellosomes resulting from the monomolecular structure of the particle is particularly noteworthy.

Molecule	concentration in the medium causing inhibition of the growth of trypanosomes [1]	Stability [2]
COc1cccc2c1C(=O)c1c(O)c3c(c(O)c1C2=O)C[C@@](O)(C(C)=O)C[C@@H]3O[C@H]1C[C@H](N)[C@H](O)[C@H](C)O1 [daunomycin]	≥ 10^−7 mol	–
polyvinyl(te/o-alanylpolylactide)ate[a=4000, b=100] [bdellosomes]	–	high

— US20040062815A1, “Bdellosomes” (priority 2000, published 2004)
